Assay results as given in patent US8841257B2, “Inhibitors of STAT3 and uses thereof” (Board of Regents, The University of Texas System, priority 2009, dated 2014).
“Also recorded” adds a separate entry of the source.

Legend:
Akt = test: EGF-stimulated Akt Ser473 phosphorylation in MDA-MB-468 cells; format: cell-based, human; settings: 1.5 hr prodrug, then EGF 100 ng/mL 30 min
Description: (§1) Effect of prodrug on the phosphorylation of STAT3, STAT5 and Akt in response to Epidermal Growth Factor stimulation. MDA-MB-468 cells were prepared as above. Prodrugs were prepared as 10 mM stock solutions in DMSO and aliquots were added to the culture media to give the correct final concentrations. After 1.5 hr EGF was added at 100 ng/mL. After 30 minutes cells were collected and lysed and proteins were separated by PAGE and transferred to three PVDF filters as above. The first filter was blocked with 5% bovine serum albumin and probed for total and phosphoStat3 as above. The second filter was probed for phosphoSer473Akt and total Akt using appropriate antibodies and similar detection procedures to those used for STAT3. The third filter was probed for phosphoTyr699 Stat5 and total STAT5 using appropriate antibodies and similar detection procedures to those used for STAT3.

STAT1 = biological target: T1, STAT1 (Homo sapiens, UniProt P42224); test: IFNγ-stimulated STAT1 phosphorylation in MDA-MB-468 cells; format: cell-based; design: host or cells: MDA-MB-468 breast tumor cells
T1 sequence (P42224 1-750): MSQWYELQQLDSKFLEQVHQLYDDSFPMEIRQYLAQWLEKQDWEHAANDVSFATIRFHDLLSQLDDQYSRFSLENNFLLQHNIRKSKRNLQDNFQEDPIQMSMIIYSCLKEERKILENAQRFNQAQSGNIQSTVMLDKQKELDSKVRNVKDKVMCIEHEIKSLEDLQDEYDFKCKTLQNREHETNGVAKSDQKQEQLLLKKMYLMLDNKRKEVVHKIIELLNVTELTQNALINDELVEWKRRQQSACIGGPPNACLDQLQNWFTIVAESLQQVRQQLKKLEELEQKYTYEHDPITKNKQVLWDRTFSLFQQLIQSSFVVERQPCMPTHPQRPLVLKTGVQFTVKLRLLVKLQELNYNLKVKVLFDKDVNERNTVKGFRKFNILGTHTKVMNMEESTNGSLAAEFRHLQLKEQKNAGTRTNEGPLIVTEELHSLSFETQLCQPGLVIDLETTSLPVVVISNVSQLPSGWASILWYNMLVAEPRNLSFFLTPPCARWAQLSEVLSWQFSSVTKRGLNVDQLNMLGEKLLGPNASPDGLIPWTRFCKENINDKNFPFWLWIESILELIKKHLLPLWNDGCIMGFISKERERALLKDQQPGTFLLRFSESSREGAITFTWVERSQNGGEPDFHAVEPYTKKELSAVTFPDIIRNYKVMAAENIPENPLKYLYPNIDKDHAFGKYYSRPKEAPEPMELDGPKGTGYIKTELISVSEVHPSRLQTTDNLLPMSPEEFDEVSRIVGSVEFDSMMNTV
Description: Effect of Prodrug on the phosphorylation of STAT1 in MDA-MB-468 breast tumor cells. MDA-MB-468 cells were prepared as above. Prodrugs were prepared as 10 mM stock solutions in DMSO and aliquots were added to the culture media to give the correct final concentrations. After 1.5 hr interferonγ was added at 25 ng/mL. After 30 minutes cells were collected and lysed and proteins were separated by PAGE and transferred to PVDF filters as above. Filters were probed for phosphoTyr701 Stat 1 and total Stat1 using appropriate antibodies and similar detection procedures to those used for Stat3.

STAT3 [1] = biological target: T2, STAT3 (Homo sapiens, UniProt P40763); test: Inhibition of Stat3 tyrosine705 phosphorylation in MDA-MB-468 cells; format: cell-based; design: host or cells: MDA-MB-468 breast tumor cells; settings: 2 h
Description: Inhibition of Stat3 tyrosine705 phosphorylation in MDA-MB-468 cells. MDA-MB-468 breast tumor cells (0.4×10^6) were plated onto 35 mm culture dishes and were allowed to grow overnight. Prodrugs were prepared as 10 mM stock solutions in DMSO and aliquots were added to the culture media to give the correct final concentrations. After 2 h the cells were washed with ice cold phosphate buffered saline. Washed cells were treated with lysis buffer (50 mM Hepes, pH 7.4, 150 mM NaCl, 1.5 mM MgCl2, 1 mM EGTA, 100 mM NaF, 10 mM sodium pyrophosphate, 10% glycerol, 1% Triton X-100, 1 mM PMSF, 1 mM Na3VO4, 10 μg/mL leupeptin and 10 μg/mL aprotinin). Cell-free detergent extracts were centrifuged at 15,000 rpm in a microcentriguge for 30 min at 4° C. and the protein concentrations of the supernatants determined. Aliquots containing 12 μg of protein were separated on 8% SDS-PAGE and were transferred to PVDF filters. The filters were blocked with 5% bovine serum albumin and were probed with pStat3^Y705 antibody followed by secondary antibody, whose signal was detected with an enhanced chemiluminescence kit (ECL, Amersham, Chicago, Ill.). Filters were stripped with stripping buffer (62.5 mM Tris, pH 6.8, 2% SDS, and 0.1 M 2-mercaptoethanol) at 50° C. for 30 min. Filters were then probed with total Stat3 antibody and visualized with chemiluminescence as above.

STAT3 [2] = biological target: T2, STAT3; test: EGF-stimulated STAT3 phosphorylation in MDA-MB-468 cells; format: cell-based; design: host or cells: MDA-MB-468 breast tumor cells; settings: 1.5 hr prodrug, then EGF 100 ng/mL 30 min
Description: as §1

[3] = system: Focal Adhesion Kinase (FAK); test: Phosphorylation of Focal Adhesion Kinase Tyr861 in MDA-MB-468 cells; format: cell-based, human; settings: 2 hr treatment
Description: Effect of Prodrug on the phosphorylation of Focal Adhesion Kinase (FAK) in MDA-MB-468 breast tumor cells. MDA-MB-468 cells express constitutive phosphorylation of Tyr861 of FAK (Laird, A. et al., Src Family Kinase Activity is Required For Signal Tranducer and Activator of Transcription 3 and Focal Adhesion Kinase Phosphorylation and Vascular Endothelial Growth Factor Signaling In Vivo and For Anchorage-Dependent and Independent Growth Of Human Tumor Cells, Mol Cancer Ther, 2, 461-9(2003). a unique substrate of Src upon recruitment via its SH2 domain (Calalb, M. B., et al, S. K. Focal adhesion kinase tyrosine-861 is a major site of phosphorylation by Src. Biochem Biophys Res Commun 1996, 228, 662-8 (1996.) To test for cross reactivity to the Src SH2 domain, MDA-MB-468 cell extracts were probed for phosphorylation of Tyr861 of FAK.

STAT5 = test: EGF-stimulated STAT5 phosphorylation in MDA-MB-468 cells; format: cell-based, human; settings: 1.5 hr prodrug, then EGF 100 ng/mL 30 min
Description: as §1

[4] = system: SUM149 and MDA-MB-231 cells; test: In vitro invasion of an artificial basement membrane; format: cell-based, human; settings: 5 μM in DMSO; 72 hours
Description: Effect of prodrugs on in vitro invasion of an artificial basement membrane by human breast cancer cells. SUM149 and MDA-MB-231 cells were trypsinized, resuspended in serum-supplemented medium, and counted. Cells were then washed 3 times with serum-free medium. Plates (6-well) compatible with transwell inserts with 8 μm pore-size polycarbonate filters (Fisher Scientific) were coated with Matrigel in cold serum-free DMEM/F12 at a final concentration of 0.7 mg/mL and held at room temperature for 40 minutes. Cells (in 500 μL serum-free medium) were added into the transwell inserts and incubated for 72 hours in the absence or presence 5 μM prodrug in DMSO (1% by volume). For a control, 10% FBS was used to evaluate the baseline extent of invasion of the different cell lines. After incubation, noninvading cells on the upper surface of the filter were removed with cotton swabs. Cells that had passed through the pores onto the lower side of the filter were fixed, stained with Hema-3 stain (Fisher Scientific), and quantified. The experiments were performed in triplicate and were repeated twice.

[5] = system: SUM149 inflammatory breast tumor cells; test: Anchorage-independent growth in soft agar, SUM149; format: cell-based; settings: 28 days
Description: (§2) Assay for anchorage-independent growth in soft agar Cells (5×10^5) were suspended in 1× DMEM/HEPES, 10% heat-inactivated FBS, 0.13% bicarbonate, and 0.33% BBL agar. The cells were plated on 1% base agar plates (60 mm) containing 1× DMEM/HEPES, 10% heat-inactivated FBS, and 1% BBL agar. Fresh serum-containing medium was fed to the cells on 3-day intervals. The dishes were then incubated at 37° C. with 5% CO2 for 28 days. The colonies that grew in soft agar were photographed and counted. Data are expressed as the number of colonies formed per plate±S.E.M. and three plates were counted per cell line.

STAT3 [6] = biological target: T2, STAT3; test: Inhibition of STAT3 phosphorylation in BT20 breast tumor cells (western blot); format: cell-based; design: endogenous in cells; host or cells: BT20 breast tumor cells; settings: BT20 time course
Description: Inhibition of STAT3 in BT20 Breast Tumor Cells. General procedure: 35 mm petri dishes were plated with 300,000 BT20 cells in 2 mL RPMI1640 media containing 10% FBS, […], streptomycin, and glutamine. Prodrugs were dissolved in DMSO and were added to the cells with fresh media at varying concentrations. After 2 h the cells were washed with ice cold phosphate buffered saline. Washed cells were treated with lysis buffer (50 mM Hepes, pH 7.4, 150 mM NaCl, 1.5 mM MgCl2, 1 mM EGTA, 100 mM NaF, 10 mM sodium pyrophosphate, 10% glycerol, 1% Triton X-100, 1 mM PMSF, 1 mM Na3VO4, 10 μg/mL leupeptin and 10 μg/mL aprotinin). Cell-free detergent extracts were centrifuged at 15,000 rpm in a microcentriguge for 30 min at 4° C. and the protein concentrations of the supernatants determined. Aliquots containing 12 μg of protein were separated on 8% SDS-PAGE and were transferred to PVDF filters. The filters were blocked with 5% bovine serum albumin and were probed with pStat3^Y705 antibody followed by secondary antibody, whose signal was detected with an enhanced chemiluminescence kit (ECL, Amersham, Chicago, Ill.). Filters were stripped with stripping buffer (62.5 mM Tris, pH 6.8, 2% SDS, and 0.1 M 2-mercaptoethanol) at 50° C. for 30 min. Filters were then probed with total Stat3 antibody and visualized with chemiluminescence as above.
Because DMSO is toxic, other formulations were evaluated for potential use in animal models. The compound of Example 1 was dissolved in EtOH, 20% (w/v) Trappsol (hydroxypropyl β-cyclodextran, pharmaceutical grade), or a liposomal formulation to a concentration of 5 mM. These formulations were given to cells at 0.1, 0.5, and 5 μM concentrations. At two hours, cells were lysed and pSTAT3 levels were determined by Western Blot (FIG. 3). Different formulations have little effect on inhibition of STAT3. The compound of Example 1 was dissolved in DMSO, EtOH, Trappsol, or as a 10 mol % mixture in dimyristoylphosphatidyl choline and applied to BT20 cell in culture. After two hours, cells were lysed and pSTAT3 levels determined by Western blot. To prepare liposomes a solution of 1.0 mg of the compound of Example 1, 7.2 mg of DMPC, 0.41 mg of Tween 20 in 1.0 mL of tert-butanol was lyophilized. A control lipid formulation of 7.2 mg of DMPC and 0.41 mg of Tween 20 in 1.0 mL of tert-butanol was lyophilized. These samples were mixed with 236 μL of H2O and were vortexed and sonicated for 5 min.
The compounds are selective for STAT3 over STAT1 in BT20 breast tumor cells. BT20 cells prepared as above and were treated with 5 μM of the compound of Example 1 for two hours then were treated with 25 ng/mL of interferon γ (IFNγ). […] (FIG. 4, bottom panel).
Time course of inhibition of STAT3 phosphorylation in BT20 cells. BT20 cells were plated as above and treated with the compounds from Examples 1 and 6 and western blots were performed at varying time intervals.

[7] = system: MDA7, MDA-MB-231, SUM149, and SUM190; test: Anchorage-independent growth in soft agar, four breast tumor models; format: cell-based; settings: MDA7, MDA-MB-231, SUM149, SUM190; 28 days
Description: as §2

T2 sequence (P40763 whole entry): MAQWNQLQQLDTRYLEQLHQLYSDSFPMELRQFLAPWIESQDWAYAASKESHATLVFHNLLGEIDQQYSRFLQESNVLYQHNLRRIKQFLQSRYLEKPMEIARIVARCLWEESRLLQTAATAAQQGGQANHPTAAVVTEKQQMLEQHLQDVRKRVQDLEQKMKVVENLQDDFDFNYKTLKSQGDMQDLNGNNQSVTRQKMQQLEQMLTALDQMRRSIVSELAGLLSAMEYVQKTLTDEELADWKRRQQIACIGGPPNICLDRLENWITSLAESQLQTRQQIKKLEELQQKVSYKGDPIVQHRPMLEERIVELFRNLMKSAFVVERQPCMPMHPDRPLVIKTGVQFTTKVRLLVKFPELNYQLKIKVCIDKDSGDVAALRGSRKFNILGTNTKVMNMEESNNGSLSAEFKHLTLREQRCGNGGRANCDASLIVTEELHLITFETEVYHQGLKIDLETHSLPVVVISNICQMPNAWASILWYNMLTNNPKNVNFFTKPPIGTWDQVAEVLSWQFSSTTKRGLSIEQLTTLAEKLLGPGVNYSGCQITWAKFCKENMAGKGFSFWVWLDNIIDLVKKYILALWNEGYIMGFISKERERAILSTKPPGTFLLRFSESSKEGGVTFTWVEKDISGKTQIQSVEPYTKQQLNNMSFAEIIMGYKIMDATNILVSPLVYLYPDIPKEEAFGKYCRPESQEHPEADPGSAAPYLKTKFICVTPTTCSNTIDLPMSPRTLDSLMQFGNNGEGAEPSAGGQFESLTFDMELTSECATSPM

Row | inhibition of Stat1 phosphorylation compared with Stat3 phosphorylation (STAT1; 1.5 hr prodrug, then interferonγ 25 ng/mL 30 min) | fold less potent at inhibiting STAT1 than STAT3 (STAT1; MDA-MB-468 cells) | concentration as low as which partial inhibition of STAT3 phosphorylation was seen (STAT3 [1]) | concentration at which complete inhibition of STAT3 phosphorylation occurred (STAT3 [1]) | EGF-induced increase in Stat3 phosphorylation (STAT3 [2]) | Compound | Akt Ser473 phosphorylation after EGF (Akt) | inhibition of Tyr705 phosphorylation of Stat3 (potency in words) (STAT3 [1]; prodrug in DMSO) | phosphorylation of FAK Tyr861 [3] | Stat5 phosphorylation after EGF (STAT5) | invasion through the artificial basement membrane [4] | colony formation in soft agar [5] | effectiveness of phosphate (X=O) relative to difluoromethyl phosphonate Example 1 (X=CF2) (STAT3 [6]) | colony formation in soft agar, four breast tumor models [7]
1 | less effective | about 10 fold | 10 nM | 500 nM | effective at inhibiting | CCCC[C@H](NC(=O)/C=C(\C)c1ccc(C(F)(F)P(=O)(OCOC(=O)C(C)(C)C)OCOC(=O)C(C)(C)C)cc1)C(=O)N1C[C@H]2CC2[C@H]1C(=O)N[C@H](C)CCC(N)=O (stereo partly drawn) [Example 18, (2E)-3-[4-[[bis[(2,2-dimethyl-1-oxopropoxy)methoxy]phosphinyl]difluoromethyl]phenyl]-but-2-enoyl-norleucinyl-(2S,3R,4S)-methanoprolinyl-(R)-4-aminopentamide] | no effect | very potent inhibitors; also recorded: inhibit phosphorylation of STAT3 | no reduction; also recorded: do not inhibit | no effect | – | – | – | –
2 | – | – | – | – | – | C/C(=C\C(=O)N[C@H]1CCc2cccc3c2N(C1=O)[C@H](C(=O)N[C@H](C)CCC(N)=O)C3)c1ccc(C(F)(F)P(=O)(Oc2ccccc2)Oc2ccccc2)cc1 [Example 8, (E)-3-[4-[(Diphenoxyphosphinyl)difluoromethyl]phenyl]-but-2-enoyl-Haic-(R)-4-aminopentamide] | – | – | – | – | inhibited invasion | inhibition of colony formation | as effective as | inhibition
